Literature values, collected in US20150101082A1, “PROCESSING SEEDS BY COLD PLASMA TREATMENT TO REDUCE AN APPARENT CONTACT ANGLE OF SEEDS COAT SURFACE” (priority 2012, published 2015).

Columns and labels:
mice [1] = details: inhalation, 7 hours
rats = details: oral
mice [2] = details: oral

| SMILES | LC50 (mice [1]) | LD50 (rats) | LD50 (mice [2]) |
| --- | --- | --- | --- |
| Nc1ccccc1 [Aniline] | 175 ppm |  |  |
| NN [Hydrazine] |  | ~60 mg/kg | ~60 mg/kg |
